Key:
[1] = tested on: zebrafish lateral line neuromast HCs; assay: Zebrafish neuromast morphology scoring (otoferlin/GFP immunofluorescence); format: in vivo, zebrafish (Danio rerio); settings: 5-dpf zebrafish, 24 h; for Neuromast morphology scores vs control: 50–300 μg/mL in E3 medium, Kruskal–Wallis, p > 0.05
Protocol: The GFP (Tg(brn3c: GFP) zebrafish larvae expressing HC membrane-bound GFP [19] were used to evaluate the effect of Qx-294 and Qx-301 on HCs and SCs of the lateral line neuromasts. Healthy 5-dpf zebrafish, maintained at 28.5 °C, were randomly distributed into Petri dishes at a density of 50 embryos/larvae per 100 mm^2 and exposed to various concentrations of Qx-294 and Qx-301 (50, 100, 150, 200, 250, and 300 μg/mL) diluted in E3 (5 mM NaCl, 0.17 mM KCl, 0.33 mM CaCl2 and 0.33 MgSO4, pH 7.2) medium for 24 h. Following treatment, the animals were transferred to E3 media for 30 min to recover, then cryoanesthetized and fixed with 4% paraformaldehyde (PFA) overnight at 4 °C. The following neuromasts were analyzed in our studies: IO4 (infraorbital 4), OP1 (opercular 1), M2 (mandibular 2), O1 (otic 1), O2, and MI2 (middle 2). An arbitrary scoring protocol was used to rank the morphology of each neuromast after treatment as follows: 1 (normal rosette-like shape, HCs look normal, HC bundles are properly arranged), 2 (normal rosette-like shape, a few HCs appear to be missing, but HC bundles are properly arranged), 3 (normal rosette-like morphology but several HCs are gone and HC bundles look disturbed), 4 (the rosette-like shape is lost in certain areas, few HCs, and few disrupted HC bundles), and 5 (no rosette-like shape, one or two dispersed HCs and no HC bundles). At least 25 animals per treatment were assessed, for a total of 200 across the entire study. The assessment was performed in a double-blind and unbiased manner. Scores were expressed as percentages of the total of neuromasts analyzed per treatment.
Cochlear dissection in mice and immunofluorescence experiments on zebrafish neuromasts and mouse cochleae were performed as previously described. The antibody and labeling kits used in this study included Otoferlin (Developmental Studies Hybridoma Bank, Iowa City, IA, USA, HCS-1), GFP (Novus Biologicals, NB100-1614), and rabbit anti-myosin VIIa (M7a) (Thermo Scientific, Waltham, MA, USA, PA1-936). Species-specific Alexa Fluor-conjugated secondary antibodies were used for detection. Phalloidin conjugated to Alexa 488 (Thermo Scientific, Waltham, MA, USA, O7466) and DAPI were used for labeling stereocilia and the nucleus, respectively.

plasma protein = assay: Plasma protein binding (rapid equilibrium dialysis); format: in vitro ADME, mice

Row | SMILES | Neuromast morphology scores vs control [1] | Neuromast morphology at the highest concentrations vs control ([1]; not statistically significant) | Plasma protein binding (plasma protein) | Neuromast morphology at 50 and 150 μg/mL ([1]; not statistically significant)
1 | c1ccc2nc(N3CCCC3)cnc2c1 [Qx-301, 2-(pyrrolidine)-quinoxaline] | did not differ significantly from those of the control group | improved morphology |  | 
2 | c1ccc2nc(N3CCOCC3)cnc2c1 [Qx-294, 2-(morpholine)-quinoxaline] | did not differ significantly from those of the control group |  | highly protein-bound | some HC loss was observed

Source: paper PMC12731105, “Design and Synthesis of New Quinoxaline Analogs to Regenerate Sensory Auditory Hair Cells” (Cells, 2025)
